The values below are quoted from earlier work in publication PMC13109691 (Environmental and Molecular Mutagenesis, 2026).

The conditions of the series: source not stated.

SMILES strings stand for the structures.

Take `COc1ccc(C(=O)c2ccccc2)c(O)c1` [Oxybenzone]: the “Lipophilicity (logP)” value is 3.79.
